Test results published in ChEMBL document CHEMBL1154295, “Potent and selective steroidal inhibitors of 17beta-hydroxysteroid dehydrogenase type 7, an enzyme that catalyzes the reduction of the key hormones estrone and dihydrotestosterone” (J Med Chem, 2009).

Target: T1, 3-keto-steroid reductase/17-beta-hydroxysteroid dehydrogenase 7 (Homo sapiens) (UniProt P56937)
T1 sequence (whole entry): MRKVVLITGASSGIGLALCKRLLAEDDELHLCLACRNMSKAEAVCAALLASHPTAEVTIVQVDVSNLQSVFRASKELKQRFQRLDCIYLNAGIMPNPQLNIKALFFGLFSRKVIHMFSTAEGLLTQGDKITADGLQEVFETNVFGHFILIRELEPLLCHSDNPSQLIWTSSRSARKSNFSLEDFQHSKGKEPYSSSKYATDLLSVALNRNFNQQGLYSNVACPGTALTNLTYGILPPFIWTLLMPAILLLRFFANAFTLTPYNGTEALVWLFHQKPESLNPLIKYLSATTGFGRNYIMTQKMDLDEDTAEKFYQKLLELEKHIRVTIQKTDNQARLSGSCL
Conditions: HEK293, at 0.3 µM
Description: Inhibition of human 17beta-HSD7 expressed in HEK293 cells assessed as inhibition of reduction of [14C]estrone into [14C]estradiol at 0.3 uM after 7 hrs

Compound | inhibition [%]
CCCCCCCCCCN(C(=O)c1c(F)cccc1F)[C@H]1CC[C@H]2[C@@H]3CC[C@H]4N(C)C(=O)CC[C@]4(C)[C@H]3CC[C@]12C | 77
CCCCCN(C(=O)c1ccc(Br)cc1)[C@H]1CC[C@H]2[C@@H]3CC[C@H]4N(C)C(=O)CC[C@]4(C)[C@H]3CC[C@]12C | 63
CCCCCCCCCCN(C(=O)c1ccc(OC)c(C(F)(F)F)c1)[C@H]1CC[C@H]2[C@@H]3CC[C@H]4N(C)C(=O)CC[C@]4(C)[C@H]3CC[C@]12C | 46
CCCCCCCCCCCCN(C(=O)c1ccc(F)cc1)[C@H]1CC[C@H]2[C@@H]3CC[C@H]4N(C)C(=O)CC[C@]4(C)[C@H]3CC[C@]12C | 47
CCCCCCCN(C(=O)c1ccccc1)[C@H]1CC[C@H]2[C@@H]3CC[C@H]4N(C)C(=O)CC[C@]4(C)[C@H]3CC[C@]12C | 56
CCCCCCCCCCN(C(=O)c1c(F)c(F)c(F)c(F)c1F)[C@H]1CC[C@H]2[C@@H]3CC[C@H]4N(C)C(=O)CC[C@]4(C)[C@H]3CC[C@]12C | 28
CCCCCCCCCCN(C(=O)c1ccc(C(C)(C)C)cc1)[C@H]1CC[C@H]2[C@@H]3CC[C@H]4N(C)C(=O)CC[C@]4(C)[C@H]3CC[C@]12C | 4
CCCCCCCCCCN(C(=O)c1cc(F)ccc1F)[C@H]1CC[C@H]2[C@@H]3CC[C@H]4N(C)C(=O)CC[C@]4(C)[C@H]3CC[C@]12C | 56
CCCCCCCN(C(=O)c1cc(F)ccc1F)[C@H]1CC[C@H]2[C@@H]3CC[C@H]4N(C)C(=O)CC[C@]4(C)[C@H]3CC[C@]12C | 59
CCCCCCCN(C(=O)c1ccc(CCl)cc1)[C@H]1CC[C@H]2[C@@H]3CC[C@H]4N(C)C(=O)CC[C@]4(C)[C@H]3CC[C@]12C | 50
CCCCCCCCCCN(C(=O)c1c(Cl)cccc1Cl)[C@H]1CC[C@H]2[C@@H]3CC[C@H]4N(C)C(=O)CC[C@]4(C)[C@H]3CC[C@]12C | 36
CCCCCCCN(C(=O)c1ccccc1Cl)[C@H]1CC[C@H]2[C@@H]3CC[C@H]4N(C)C(=O)CC[C@]4(C)[C@H]3CC[C@]12C | 37
CCCCCCCN(C(=O)c1c(Cl)cccc1Cl)[C@H]1CC[C@H]2[C@@H]3CC[C@H]4N(C)C(=O)CC[C@]4(C)[C@H]3CC[C@]12C | 28
CCCCCCCCCCN(C(=O)c1ccccc1Cl)[C@H]1CC[C@H]2[C@@H]3CC[C@H]4N(C)C(=O)CC[C@]4(C)[C@H]3CC[C@]12C | 37
CCCCCCCN(C(=O)c1cccc(CCl)c1)[C@H]1CC[C@H]2[C@@H]3CC[C@H]4N(C)C(=O)CC[C@]4(C)[C@H]3CC[C@]12C | 24
CCCCCCCN(C(=O)c1ccc(F)cc1F)[C@H]1CC[C@H]2[C@@H]3CC[C@H]4N(C)C(=O)CC[C@]4(C)[C@H]3CC[C@]12C | 73
CCCCCCCCCCN(C(=O)c1ccc(I)cc1)[C@H]1CC[C@H]2[C@@H]3CC[C@H]4N(C)C(=O)CC[C@]4(C)[C@H]3CC[C@]12C | 39
CCCCCCCCCCN(C(=O)c1ccc(Br)cc1)[C@H]1CC[C@H]2[C@@H]3CC[C@H]4N(C)C(=O)CC[C@]4(C)[C@H]3CC[C@]12C | 52
CCCCCCCCCCN(C(=O)c1ccc(C#N)cc1)[C@H]1CC[C@H]2[C@@H]3CC[C@H]4N(C)C(=O)CC[C@]4(C)[C@H]3CC[C@]12C | 49
CCCCCCCCCCCCN(C(=O)c1c(Cl)cccc1Cl)[C@H]1CC[C@H]2[C@@H]3CC[C@H]4N(C)C(=O)CC[C@]4(C)[C@H]3CC[C@]12C | 18
CCCCCCCCCCN(C(=O)c1ccc(CCCCCCC)cc1)[C@H]1CC[C@H]2[C@@H]3CC[C@H]4N(C)C(=O)CC[C@]4(C)[C@H]3CC[C@]12C | 11
CCCCCCCN(C(=O)c1c(F)cccc1C(F)(F)F)[C@H]1CC[C@H]2[C@@H]3CC[C@H]4N(C)C(=O)CC[C@]4(C)[C@H]3CC[C@]12C | 49

Compound | inhibition [%]
CCCCCCCN(C(=O)c1ccc(I)cc1)[C@H]1CC[C@H]2[C@@H]3CC[C@H]4N(C)C(=O)CC[C@]4(C)[C@H]3CC[C@]12C | 60
CCCCCCCN(Cc1ccccc1)[C@H]1CC[C@H]2[C@@H]3CC[C@H]4N(C)C(=O)CC[C@]4(C)[C@H]3CC[C@]12C | 69
CCCCCCCN(C(=O)C1CCCCC1)[C@H]1CC[C@H]2[C@@H]3CC[C@H]4N(C)C(=O)CC[C@]4(C)[C@H]3CC[C@]12C | 0
CCCCCCCCCCCCN(C(=O)c1ccc(OC)c(C(F)(F)F)c1)[C@H]1CC[C@H]2[C@@H]3CC[C@H]4N(C)C(=O)CC[C@]4(C)[C@H]3CC[C@]12C | 51
CCCCCCCN(C(=O)c1ccc(OC)c(C(F)(F)F)c1)[C@H]1CC[C@H]2[C@@H]3CC[C@H]4N(C)C(=O)CC[C@]4(C)[C@H]3CC[C@]12C | 59
CCCCCCCCCCN(C(=O)c1ccc(CCl)cc1)[C@H]1CC[C@H]2[C@@H]3CC[C@H]4N(C)C(=O)CC[C@]4(C)[C@H]3CC[C@]12C | 37
CCCCCCCc1ccc(C(=O)N(CCCCCCC)[C@H]2CC[C@H]3[C@@H]4CC[C@H]5N(C)C(=O)CC[C@]5(C)[C@H]4CC[C@]23C)cc1 | 24
CCCCCCCN(C(=O)c1cc(F)cc(F)c1)[C@H]1CC[C@H]2[C@@H]3CC[C@H]4N(C)C(=O)CC[C@]4(C)[C@H]3CC[C@]12C | 56
CCCCCCCCCCN(C(=O)c1cccc(CCl)c1)[C@H]1CC[C@H]2[C@@H]3CC[C@H]4N(C)C(=O)CC[C@]4(C)[C@H]3CC[C@]12C | 30
CCCCCCCCCCCCN(C(=O)c1ccc(Br)cc1)[C@H]1CC[C@H]2[C@@H]3CC[C@H]4N(C)C(=O)CC[C@]4(C)[C@H]3CC[C@]12C | 52
CCCCCCCCCCN(C(=O)c1cc(F)cc(F)c1)[C@H]1CC[C@H]2[C@@H]3CC[C@H]4N(C)C(=O)CC[C@]4(C)[C@H]3CC[C@]12C | 38
CCCCCCCCCCN(C(=O)c1ccc(Cl)cc1)[C@H]1CC[C@H]2[C@@H]3CC[C@H]4N(C)C(=O)CC[C@]4(C)[C@H]3CC[C@]12C | 58
CCCCCCCN(C(=O)c1c(F)c(F)c(F)c(F)c1F)[C@H]1CC[C@H]2[C@@H]3CC[C@H]4N(C)C(=O)CC[C@]4(C)[C@H]3CC[C@]12C | 67
CCCCCCCN(C(=O)c1ccc(Cl)cc1)[C@H]1CC[C@H]2[C@@H]3CC[C@H]4N(C)C(=O)CC[C@]4(C)[C@H]3CC[C@]12C | 65
CCCCCCCN(C(=O)c1ccc(Br)cc1)[C@H]1CC[C@H]2[C@@H]3CC[C@H]4N(C)C(=O)CC[C@]4(C)[C@H]3CC[C@]12C | 68
CCCCCCCCCCCCN(C(=O)c1ccc(Cl)cc1)[C@H]1CC[C@H]2[C@@H]3CC[C@H]4N(C)C(=O)CC[C@]4(C)[C@H]3CC[C@]12C | 40
CCCCCCCN(C(=O)c1ccc(C(C)(C)C)cc1)[C@H]1CC[C@H]2[C@@H]3CC[C@H]4N(C)C(=O)CC[C@]4(C)[C@H]3CC[C@]12C | 29
CCCCCCCCCCCCN(C(=O)c1ccc(C#N)cc1)[C@H]1CC[C@H]2[C@@H]3CC[C@H]4N(C)C(=O)CC[C@]4(C)[C@H]3CC[C@]12C | 51
CCCCCCCCCCN(C(=O)c1ccc(F)cc1)[C@H]1CC[C@H]2[C@@H]3CC[C@H]4N(C)C(=O)CC[C@]4(C)[C@H]3CC[C@]12C | 71
CCCCCCCCCCCCN(C(=O)c1ccc(CCl)cc1)[C@H]1CC[C@H]2[C@@H]3CC[C@H]4N(C)C(=O)CC[C@]4(C)[C@H]3CC[C@]12C | 33
CCCCCCCN(CC1CCCCC1)[C@H]1CC[C@H]2[C@@H]3CC[C@H]4N(C)C(=O)CC[C@]4(C)[C@H]3CC[C@]12C | 45
CCCCCCCCCCCCN(C(=O)c1cccc(CCl)c1)[C@H]1CC[C@H]2[C@@H]3CC[C@H]4N(C)C(=O)CC[C@]4(C)[C@H]3CC[C@]12C | 45
